# From patent publication US9021738B2, “Control of termites, fire ants and carpenter ants” (priority 2008, dated 2015)
# Where two headings read alike, the source gives them in different places.
# What was measured:
# [1] = test system: Formosan subterranean termites; format: in vivo, Coptotermes formosanus; details: for termites killed: 25 mg/liter volume
# Procedure: (§1) Formosan subterranean termites were collected from bucket traps placed in City Park, New Orleans, La. Altogether five colonies designated 1314, 1559, 1732, 1743 and 1756 were used in the tests. After collection, the termites (primarily workers and soldiers) were transferred to plastic boxes with moist spruce slats. The boxes were stored in an incubator maintained at 28° C., 65% RH, and constant darkness. Termites were used within one month of their collection.
# (§2) Vapor Toxicity Under Subterranean Conditions. This test was also conducted in the one liter Qorpak™ bottles. A 35 by 40 by 7 mm piece of moist spruce was placed at the bottom of the bottle and covered with 40 g fine-sifted black soil. One hundred termite workers were released into each bottle and allowed to tunnel under the soil and into the wood. After 3 days, a test chemical was applied to a filter paper and suspended from the cap-liner. The chemicals were tested at 10, 25 and 50 mg. […] The test was conducted with termites from 3 colonies and replicated 3 times.
# Because in their natural environment the subterranean termites are not expected to be exposed to a chemical in open space, we conducted the next test by placing 100 workers termites in spruce slats covered with a layer of soil, all placed in the same glass bottles. Tests were conducted at 25 mg dose. After 2 days tetrahydrocarvone (both d- and l-isomers) caused 100% mortality.
# [2] = test system: drywood termites; details: Petri dish assays, as claimed in prior art; cited from earlier work
# [3] = test system: fire ants; experiment: Vapor Toxicity Under Subterranean Conditions with fire ants; format: in vivo, Solenopsis invicta; details: 25 mg, in 24 hours
# Procedure: as §2
# The same Vapor Toxicity Under Subterranean Conditions test as described in paragraph [0023] was conducted except that fire ants were employed instead of termites.
# [4] = test system: Formosan subterranean termites; experiment: Assay for Vapor Toxicity; format: in vivo, Coptotermes formosanus
# Procedure: as §1
# Assay for Vapor Toxicity. This test was conducted in 960 ml wide-mouth clear Qorpak™ (All-Pak, Inc.) bottles with PTFE lined caps. A 60 mm diameter glass Petri dish with a moist filter paper and 50 termite workers was placed at the bottom of each bottle. The test chemical was applied to a 1 cm diameter filter paper and suspended with an insect pin from the cap-liner. Each chemical was initially tested at 1 mg in the one liter bottle then at 0.1 and 0.5 mg. Since 0.1 and 0.5 mg doses caused very low and 100% mortality respectively, the final test was carried out at 0.25 mg. Each chemical was tested with different termite colonies and replicated three times. The bottles were placed in the incubator. Mortality was recorded after 1, 2 and 3 days by quickly taking the glass Petri dish with the termites out of the bottle (with a pair of long forceps) and replacing it after removing the dead workers.
# [5] = test system: carpenter ants; experiment: Sealed jar test on carpenter ants; format: in vivo, Camponotus chromaoides; details: one drop (approximately 30 mg) on filter paper in sealed 16 oz jar, within 24 hours
# Procedure: One drop (approximately 30 mg) of tetrahydro l-carvone test compound was applied to filter paper within a sealed jar (16 oz glass jar, 3½ inch diameter, 3⅞ inch high with plastic lids) containing ten carpenter (Camponotus chromaoides) ants per replicate with there being five replicates. Five negative controls with no test compounds were also run. The tetrahydro-1-carvone provided 100% mortality to the carpenter ants within 24 hours while the control produced 6% mortality over the same 24 hour period.
SMILES,efficacy against termites in soil and wood [1],mortality of drywood and other termites [2],other results
C=C(C)C1CC=C(C)[C@@H](O)C1 (stereo partly shown) [carveol],totally ineffective,high mortality,–
CC(C)=CCCC(C)CC=O (stereo not shown) [citronellal],totally ineffective,high mortality,–
C=C(C)[C@@H]1CC[C@@H](C)C(=O)C1 [dihydro-l-carvone],–,–,termites killed ([1]; in 48 hours): 100%
CC(C)=CCC/C(C)=C/CO [geraniol],totally ineffective,high mortality,–
Cc1ccc(C(C)C)cc1 [p-cymene],totally ineffective,high mortality,–
CC(C)[C@@H]1CC[C@@H](C)C(=O)C1 [tetrahydro-d-carvone],–,–,"fire ants killed [3]: 100%; termites killed ([4]; 0.25 mg/liter volume, in 3 days): 75%; termites killed ([4]; 0.5 mg/liter volume, in 1 day): 100%"
CC(C)[C@@H]1CC[C@@H](C)C(=O)C1 [tetrahydro-l-carvone],–,–,"termites killed ([1]; in 24 hrs): 100%; mortality to carpenter ants [5]: 100%; termites killed ([4]; 1 mg per liter volume, in 1 day): 100%"
CC(C)[C@@H]1CC[C@@H](C)C(=O)C1 [tetrahydrocarvone],–,–,"mortality ([1]; 25 mg dose, after 2 days, 100 worker termites in spruce slats covered with soil): 100%"
